These are literature values, as cited in US20050273047A1, “System and method for transdermal delivery of an anticoagulant” (priority 2004, published 2005).

Molecules are shown by their SMILES.

For this data set, the target named is Factor Xa (Homo sapiens, UniProt P00742). The note with it: as compared to the corresponding methyl ester; cited from earlier work.
Chain of Factor Xa (P00742 235-488 limits assumed): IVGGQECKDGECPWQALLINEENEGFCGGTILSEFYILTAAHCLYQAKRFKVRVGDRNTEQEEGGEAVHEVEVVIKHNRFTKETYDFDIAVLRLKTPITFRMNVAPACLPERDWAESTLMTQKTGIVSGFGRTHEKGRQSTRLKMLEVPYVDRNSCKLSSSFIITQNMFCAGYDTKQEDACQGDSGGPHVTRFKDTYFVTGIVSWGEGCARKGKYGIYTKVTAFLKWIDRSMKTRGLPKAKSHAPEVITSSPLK
Chain of Factor Xa (P00742 41-179 partner limits assumed): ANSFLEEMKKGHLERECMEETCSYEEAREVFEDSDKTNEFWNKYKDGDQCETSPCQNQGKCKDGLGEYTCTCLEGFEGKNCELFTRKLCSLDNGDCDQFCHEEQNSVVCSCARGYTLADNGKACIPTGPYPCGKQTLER

For the molecule `CC(=N)N1CC[C@H](Oc2ccc([C@H](Cc3ccc4ccc(C(=N)N)cc4c3)C(=O)O)cc2)C1` [compound shown in FIG. 7], the “enhancement of Factor Xa selectivity by the carboxylic acid” value was “about 100 fold”.
